Patent US10945516B2, “Device mounted on mask pack, mask pack and kit comprising the same” (BIOSENSOR LABORATORIES INC., priority 2016, dated 2021)

Legend:
[1] = assay type: in vitro ADME; settings: pig, 30 min, 0.5 mM
Protocol: In particular, first, frozen pig skin purchased from a slaughterhouse was left out at room temperature and thawed for 2 to 3 hours for preparation. Then, hair on the pig skin was removed, and the pig skin was stretched to have elasticity and fixed on a plate with pins. As an experimental group, the mask pack prepared according to an embodiment was applied to the pig skin for 30 minutes, and as a control group, a mask pack on which a RED battery was not mounted was applied to the pig skin for 30 minutes. 0.5 mM of Calcein (having a molecular weight of 622.55 g/mol, available from Sigma-Aldrich), which is a fluorescent agent, was used in a material-containing portion. Thereafter, the pig skin was prepared as samples and fixed for 24 hours by using a fixing solution of 4% paraformaldehyde (pH 7.4 at 4° C.). After the fixing, the samples were sufficiently washed with a PBS (pH 7.4) solution, and embedded with a Tissue-Tek O.C.T. compound (available from Sakura Finetek, USA) and rapidly cooled. The cooled samples were cut to a size of 7 um by using a cryomicrotome (Shandon Cryotome SME Cryostat, Shandon Scientific LTD, Cheshire, England). The cryomicrotomed tissue was washed with a PBS solution, mounted on a mounting solution, covered with a cover slip, and observed using a fluorescent microscope (Axio Observer Z1; Zeiss, Gottingen, Germany), and the results are shown in FIG. 11.

[2] = Degree of absorption of vitamin C by mouse skin from patch (HPLC); assay type: in vitro ADME; settings: 12.5 mg per patch, 6 hours, hairless mouse back skin
Protocol: In particular, hairless mouse skin was used to measure a cumulative amount of vitamin C in skin of a mouse. As a control group, a preparation containing vitamin C in a general patch was used. As an experimental group, a preparation containing vitamin C in a patch using reverse electrodialysis was used. A cohesive hydrogel-type patch was prepared by using 3 w/v % Carbopol, and 0.5 mL of a vitamin C-containing cohesive hydrogel was loaded on the patch (an amount of vitamin C was 2.5 w/v %, and an amount of vitamin C loaded per patch was 12.5 mg). Back skin of a 5 week-old mouse (20 to 25 g) was taken, and the patch was mounted thereon. The patch was removed after being incubated for 6 hours, and the skin was carefully separated, quickly washed by using DDW and MeOH, and freeze-stored at −70° C. […] Amounts of vitamin C in the samples were measured by using high-performance liquid chromatography (HPLC) using a mixture of acetonitrile and 0.3 M of KH2PO4 (pH 4) at a ratio of 40:60 as a mobile phase, a Nucleosil NH2 (100 μm) column, a flow rate of 0.8 mL/min, an insertion volume of 20 μL, a UV wavelength of 264 nm, and a column temperature of 25° C., and the results are shown in FIG. 13.

SMILES | amount of fluorescence that permeated into skin [1] [ng/cm^2] | amount permeated into skin [1] | increase of amount permeated into skin, reverse electrodialysis mask pack compared to passive diffusion [1] | locally remaining amounts of vitamin C of the epidermis layer and the dermis layer ([2]; control group general patch) | increase of locally remaining amounts of vitamin C of the epidermis layer and the dermis layer relative to control group ([2]; reverse electrodialysis patch vs general patch)
O=C(O)CN(CC(=O)O)Cc1cc2c(cc1O)Oc1cc(O)c(CN(CC(=O)O)CC(=O)O)cc1C21OC(=O)c2ccccc21 [Calcein] | 0.47 | about 0.05 ng/cm^2 | about 7 times | – | –
O=C1O[C@H]([C@@H](O)CO)C(O)=C1O [vitamin C] | – | – | – | small | about 3 times
